The source of these data is patent US6495576B2, “Aminal diones as potassium channel openers” (Abbott Laboratories, priority 2001, dated 2002).

This test relates to Landrace pig bladder strips. Put plainly: Functional potassium channel opening activity in isolated, field-stimulated bladder strips. To be noted: for Index: ED50 for P1075 divided by ED50 for test agonist in a given tissue, averaged; for EC50: amount causing 50% of the agent's maximal response, field stimulation 0.05 Hz, 0.5 ms, 20 volts, read-out: ED50 (the source's name); for Emax / Efficacy (%P1075): maximal efficacy on stimulated twitch, relative to P1075. Here is the method: Compound were evaluated for functional potassium channel opening activity using tissue strips obtained from Landrace pig bladders.
Landrace pig bladders were obtained from female Landrace pigs of 9-30 kg. Landrace pig were euthanized with an intraperitoneal injection of pentobarbital solution, Somlethal ®, J. A. Webster Inc. Sterling Mass. The entire bladder was removed and immediately placed into Krebs Ringer bicarbonate solution (composition, mM: NaCl, 120; NaHCO3, 20; dextrose, 11; KCl, 4.7; CaCl2, 2.5; MgSO4, 1.5; KH2PO4, 1.2; K2EDTA, 0.01, equilibrated with 5% CO2/95% O2 pH 7.4 at 37° C.). Propranolol (0.004 mM) was included in all of the assays to block β-adrenoceptors. The trigonal and dome portions were discarded. Strips 3-5 mm wide and 20 mm long were prepared from the remaining tissue cut in a circular fashion. The mucosal layer was removed. One end was fixed to a stationary glass rod and the other to a Grass FT03 transducer at a basal preload of 1.0 gram. Two parallel platinum electrodes were included in the stationary glass rod to provide field stimulation of 0.05 Hz, 0.5 milli-seconds at 20 volts. This low frequency stimulation produced a stable twitch response of 100-500 centigrams. Tissues were allowed to equilibrate for at least 60 minutes and primed with 80 mM KCl. A control concentration response curve (cumulative) was generated for each tissue using the potassium channel opener P1075 as the control agonist. […] After a 60 minute rinsing period, a concentration response curve (cumulative) was generated for the test agonist in the same fashion as that used for control agonist P1075. The maximal efficacy of each compound (expressed as % relative to P1075) is reported. The amount of agent necessary to cause 50% of the agent's maximal response (ED50) was calculated using “ALLFIT” (DeLean et al., Am. J. Physiol., 235, E97 (1980)), hereby incorporated by reference. Agonist potencies were also expressed as an index relative to P1075. The index was calculated by dividing the ED50 for P1075 by the ED50 for the test agonist in a given tissue. Each tissue was used for only one test agonist, and the indices obtained from each tissue were averaged to provide an average index of potency.

Where two headings read alike, the source gives them in different places.

Regarding `CC(C)(C)C(NC(=O)c1cccc(Br)c1)Nc1c(Nc2cccnc2Cl)c(=O)c1=O` (stereo not shown) [Example 67, 3-Bromo-N-[1-({2-[(2-chloropyridin-3-yl)amino]-3,4-dioxo-1-cyclobuten-1-yl}amino)-2,2-dimethylpropyl]benzamide], the Index is listed as 0.029. Besides, for the setting “Sus scrofa”, the EC50 is 2500 nM and the Emax was determined as 72%.
With `CC(C)(C)C(NC(=O)c1cccc(F)c1)Nc1c(Nc2cccnc2Cl)c(=O)c1=O` (stereo not shown) [Example 78], the Index amounted to 0.18, the EC50 was found to be 840 nM and the “Efficacy (%P1075)” value was found to be 98 %P1075.
The compound `CC(C)(C)C(NC(=O)c1cc(Cl)cc(Cl)c1)Nc1c(Nc2cccnc2Cl)c(=O)c1=O` (stereo not shown) [Example 79, 3,5-Dichloro-N-[1-({2-[(2-chloropyridin-3-yl)amino]-3,4-dioxocyclobut-1-en-1-yl}amino)-2,2-dimethylpropyl]benzamide] returned an Index of 0.024. Moreover, under “Sus scrofa”, the EC50 amounted to 4600 nM and the Emax stood at 60%.
Consider `CC(C)(Cc1ccccc1)C(NC(=O)c1ccccc1)Nc1c(Nc2cccnc2)c(=O)c1=O` (stereo not shown) [Example 86], for which the Index came to 0.24, the EC50 stood at 640 nM and the “Efficacy (%P1075)” value is 85 %P1075.
Consider `CC(C)(C)C(NC(=O)CCc1ccccc1)Nc1c(Nc2cccnc2Cl)c(=O)c1=O` (stereo not shown) [Example 87, N-[1-({2-[(2-chloropyridin-3-yl)amino]-3,4-dioxo-1-cyclobuten-1-yl}amino)-2,2-dimethylpropy1]-3-phenylpropanamide], for which the Index worked out at 0.039, the EC50 is 1900 nM and the “Efficacy (%P1075)” value is reported as 96 %P1075.
In turn, `CC(C)(C)[C@H](NC(=O)c1cc(Cl)cc(Cl)c1)Nc1c(Nc2cccnc2Cl)c(=O)c1=O` [Example 108, (+) 3,5-Dichloro-N-[(1S)-1-({2-[(2-chloropyridin-3-yl)amino]-3,4-dioxocyclobut-1-en-1-yl}amino)-2,2-dimethylpropyl]benzamide] returned an Index of 0.033. In addition, for the setting “Sus scrofa”, the EC50 amounted to 4200 nM and the Emax worked out at 89%.
In the case of `CCC(C)(C)N=C(NC#N)Nc1cccnc1` [Example P1075, reference compound], the “effect on stimulated twitch” value (control agonist, dose dependent, 10^−9 to 10^−5 M) was “completely eliminated the stimulated twitch”.
